Source: ChEMBL document CHEMBL1145601, “The design and synthesis of diaryl ether second generation HIV-1 non-nucleoside reverse transcriptase inhibitors (NNRTIs) with enhanced potency versus key clinical mutations” (Bioorg Med Chem Lett, 2008)

What was measured:
[1] = target: Human immunodeficiency virus type 1 reverse transcriptase (Human immunodeficiency virus 1, UniProt Q72547, Y181C); assay: Inhibition of HIV1 reverse transcriptase Y181C mutant by SPA assay
[2] = tested on: Human immunodeficiency virus 1; assay: Antiviral activity against HIV1 in human MT4 cells in presence of 50% normal human serum; format: functional; details: Human immunodeficiency virus 1, MT4; read-out: CIC95
[3] = tested on: Human immunodeficiency virus 1; assay: Antiviral activity against HIV1 in human MT4 cells in RPMI1640 media containing fetal bovine serum; format: functional; details: Human immunodeficiency virus 1, MT4; read-out: CIC95
[4] = target: Human immunodeficiency virus type 1 reverse transcriptase (Human immunodeficiency virus 1, UniProt Q72547, K103N); assay: Inhibition of HIV1 reverse transcriptase K103N mutant by SPA assay
[5] = tested on: Human immunodeficiency virus 1; assay: Antiviral activity against HIV1 with RT Y181C mutation in human MT4 cells in presence of 10% fetal bovine serum; format: functional; details: Human immunodeficiency virus 1, MT4; read-out: CIC95
[6] = tested on: Human immunodeficiency virus 1; assay: Antiviral activity against HIV1 with RT K103N mutation in human MT4 cells in presence of 10% fetal bovine serum; format: functional; details: Human immunodeficiency virus 1, MT4; read-out: CIC95
[7] = target: Human immunodeficiency virus type 1 reverse transcriptase (Human immunodeficiency virus 1, UniProt Q72547); assay: Inhibition of HIV1 reverse transcriptase by SPA assay
[8] = Oral bioavailability in Sprague-Dawley rat at 10 mg/kg, po and 2 mg/kg, iv; format: ADME, organism-based; details: in vivo
[9] = tested on: Human immunodeficiency virus 1; assay: Antiviral activity against HIV1 with RT Y181C/G190A mutation in human MT4 cells in presence of 40% normal human serum; format: functional, organism-based; details: Human immunodeficiency virus 1, MT4
[10] = tested on: Human immunodeficiency virus 1; assay: Antiviral activity against HIV1 with RT K103N/G190A mutation in human MT4 cells in presence of 40% normal human serum; format: functional, organism-based; details: Human immunodeficiency virus 1, MT4
[11] = AUC in Beagle dog at 0.25 mg/kg, iv; format: ADME, organism-based, Canis lupus familiaris; parameters: dose 0.25 mg/kg, route intravenous; details: plasma
[12] = tested on: Human immunodeficiency virus 1; assay: Antiviral activity against HIV1 with RT L100I mutation in human MT4 cells in presence of 40% normal human serum; format: functional, organism-based; details: Human immunodeficiency virus 1, MT4
[13] = tested on: Human immunodeficiency virus 1; assay: Antiviral activity against HIV1 with RT K103N/Y181C mutation in human MT4 cells in presence of 40% normal human serum; format: functional, organism-based; details: Human immunodeficiency virus 1, MT4
[14] = tested on: Human immunodeficiency virus 1; assay: Antiviral activity against HIV1 with RT G190A mutation in human MT4 cells in presence of 40% normal human serum; format: functional, organism-based; details: Human immunodeficiency virus 1, MT4
[15] = tested on: Human immunodeficiency virus 1; assay: Antiviral activity against HIV1 with RT K103N mutation in human MT4 cells in presence of 40% normal human serum; format: functional, organism-based; details: Human immunodeficiency virus 1, MT4
[16] = tested on: Human immunodeficiency virus 1; assay: Antiviral activity against HIV1 in human MT4 cells in presence of 40% normal human serum; format: functional, organism-based; details: Human immunodeficiency virus 1, MT4
[17] = Clearance in rhesus monkey at 1 mg/kg, iv; format: ADME, organism-based, Macaca mulatta; parameters: dose 1 mg/kg, route intravenous; details: in vivo
[18] = Half life in Beagle dog at 0.25 mg/kg, iv; format: ADME, organism-based, Canis lupus familiaris; parameters: dose 0.25 mg/kg, route intravenous; details: in vivo
[19] = AUC in Sprague-Dawley rat at 10 mg/kg, po and 2 mg/kg, iv; format: ADME, organism-based; details: plasma
[20] = Volume of distribution in Beagle dog at 0.25 mg/kg, iv; format: ADME, organism-based, Canis lupus familiaris; parameters: dose 0.25 mg/kg, route intravenous; details: in vivo
[21] = Clearance in Sprague-Dawley rat at 2 mg/kg, iv; format: ADME, organism-based; parameters: dose 2 mg/kg, route intravenous; details: in vivo
[22] = tested on: Human immunodeficiency virus 1; assay: Antiviral activity against HIV1 with RT G190S mutation in human MT4 cells in presence of 40% normal human serum; format: functional, organism-based; details: Human immunodeficiency virus 1, MT4
[23] = Volume of distribution in Sprague-Dawley rat at 10 mg/kg, po and 2 mg/kg, iv; format: ADME, organism-based; details: in vivo
[24] = AUC in rhesus monkey at 1 mg/kg, iv; format: ADME, organism-based, Macaca mulatta; parameters: dose 1 mg/kg, route intravenous; details: plasma
[25] = tested on: Human immunodeficiency virus 1; assay: Antiviral activity against HIV1 with RT K103N/P225H mutation in human MT4 cells in presence of 40% normal human serum; format: functional, organism-based; details: Human immunodeficiency virus 1, MT4
[26] = tested on: Human immunodeficiency virus 1; assay: Antiviral activity against HIV1 with RT Y188L mutation in human MT4 cells in presence of 40% normal human serum; format: functional, organism-based; details: Human immunodeficiency virus 1, MT4
[27] = Volume of distribution in rhesus monkey at 1 mg/kg, iv; format: ADME, organism-based, Macaca mulatta; parameters: dose 1 mg/kg, route intravenous; details: in vivo
[28] = tested on: Human immunodeficiency virus 1; assay: Antiviral activity against HIV1 with RT K103N/V179E mutation in human MT4 cells in presence of 40% normal human serum; format: functional, organism-based; details: Human immunodeficiency virus 1, MT4
[29] = tested on: Human immunodeficiency virus 1; assay: Antiviral activity against HIV1 with RT Y181C mutation in human MT4 cells in presence of 40% normal human serum; format: functional, organism-based; details: Human immunodeficiency virus 1, MT4
[30] = Half life in Sprague-Dawley rat at 2 mg/kg, iv; format: ADME, organism-based; parameters: dose 2 mg/kg, route intravenous; details: in vivo
[31] = tested on: Human immunodeficiency virus 1; assay: Antiviral activity against HIV1 with RT K101E/G190A mutation in human MT4 cells in presence of 40% normal human serum; format: functional, organism-based; details: Human immunodeficiency virus 1, MT4
[32] = Clearance in Beagle dog at 0.25 mg/kg, iv; format: ADME, organism-based, Canis lupus familiaris; parameters: dose 0.25 mg/kg, route intravenous; details: in vivo
[33] = tested on: Human immunodeficiency virus 1; assay: Antiviral activity against HIV1 with RT K103N/Y181C/G190A mutation in human MT4 cells in presence of 40% normal human serum; format: functional, organism-based; details: Human immunodeficiency virus 1, MT4
[34] = Half life in rhesus monkey at 1 mg/kg, iv; format: ADME, organism-based, Macaca mulatta; parameters: dose 1 mg/kg, route intravenous; details: in vivo

N#Cc1cc(Cl)cc(Oc2cc(Cl)cc(OCC(=O)Nc3ccc(S(N)(=O)=O)cc3Cl)c2)c1
IC50 [1]: 2.66 nM | IC95 [2]: 125 nM | IC95 [3]: 16 nM | IC50 [4]: 3.48 nM

CS(=O)(=O)c1ccc2c(c1)CCN2C(=O)COc1ccc(Cl)c(Oc2cc(Cl)cc(C#N)c2)c1
IC95 [5]: 14.3 nM | IC95 [6]: 5.26 nM | IC50 [1]: 1.7 nM | IC95 [2]: 29.7 nM | IC95 [3]: 3.68 nM | IC50 [7]: 0.86 nM | IC50 [4]: 0.33 nM

N#Cc1cc(Cl)cc(Oc2cc(OCc3nc4cccc(Cl)c4[nH]3)ccc2Cl)c1
IC50 [1]: 50 nM | IC95 [2]: 2780 nM | IC95 [3]: 103 nM | IC50 [7]: 3.2 nM | IC50 [4]: 7.3 nM

N#Cc1cccc(Oc2cc(Cl)cc(OCC(=O)Nc3ccc(S(N)(=O)=O)cc3Cl)c2)c1
IC50 [1]: 1.2 nM | IC95 [2]: 160 nM | IC95 [3]: 8 nM | IC50 [7]: 0.96 nM | IC50 [4]: 14.4 nM

Cc1cc(S(N)(=O)=O)ccc1NC(=O)COc1ccc(Cl)cc1C(=O)c1cc(Cl)cc(C#N)c1
IC95 [5]: 3.28 nM | IC95 [6]: 6.98 nM | IC50 [1]: 2.48 nM | IC95 [2]: 30.5 nM | IC95 [3]: 2.65 nM | IC50 [7]: 2.16 nM | IC50 [4]: 3.16 nM

NS(=O)(=O)c1ccc(NC(=O)COc2cccc(Oc3ccccc3)c2)c(Cl)c1
IC50 [1]: 722 nM | IC50 [7]: 51.7 nM | IC50 [4]: 192 nM

N#Cc1cc(Cl)cc(Oc2cc(OCc3nc4ccccc4s3)ccc2Cl)c1
IC50 [1]: 54.9 nM | IC95 [2]: 1250 nM | IC95 [3]: 312 nM | IC50 [7]: 19.3 nM | IC50 [4]: 79.2 nM

N#Cc1cc(Cl)cc(Oc2cc(OCc3n[nH]c4ccccc34)ccc2Cl)c1
IC95 [5]: 102 nM | bioavailability [8]: 3.3% | IC50 [9]: 35.8 nM | IC50 [10]: 21.7 nM | AUC [11]: 0.4 µM·h | IC50 [12]: 2.6 nM | IC50 [13]: 141 nM | IC50 [14]: 9.4 nM | IC50 [15]: 7.9 nM | IC50 [16]: 4.7 nM | IC95 [6]: 33.4 nM | clearance [17]: 24 mL/min/kg | IC50 [1]: 2.62 nM | IC95 [2]: 114 nM | half-life [18]: 1.5 h | AUC [19]: 6.2 µM·h | Vd [20]: 1.2 L/kg | clearance [21]: 13.6 mL/min/kg | IC50 [22]: 23.4 nM | Vd [23]: 2.9 L/kg | AUC [24]: 1.7 µM·h | IC95 [3]: 22.6 nM | IC50 [4]: 1.12 nM | IC50 [25]: 29.3 nM | IC50 [26]: > 1000 nM | Vd [27]: 7.1 L/kg | IC50 [28]: 20.3 nM | IC50 [29]: 13.8 nM | half-life [30]: 4.7 h | IC50 [31]: 21 nM | clearance [32]: 28.9 mL/min/kg | IC50 [33]: 171 nM | half-life [34]: 8.1 h

NS(=O)(=O)c1ccc(NC(=O)COc2cc(Cl)cc(Oc3ccccc3)c2)c(Cl)c1
IC50 [1]: 25 nM | IC50 [7]: 10.5 nM | IC50 [4]: 218 nM

N#Cc1cc(Cl)cc(Oc2cc(OCc3nc4cccc(Cl)c4o3)ccc2Cl)c1
IC50 [1]: 6.38 nM | IC95 [2]: 312 nM | IC95 [3]: 78 nM | IC50 [7]: 0.59 nM | IC50 [4]: 1.41 nM

N#Cc1cc(Cl)cc(Oc2cc(OCC(=O)Nc3ccc(S(N)(=O)=O)cc3Cl)ccc2Cl)c1
IC95 [5]: 14.8 nM | IC95 [6]: 9.52 nM | IC50 [1]: 0.28 nM | IC95 [2]: 23.9 nM | IC95 [3]: 7.56 nM | IC50 [7]: 0.14 nM | IC50 [4]: 0.21 nM

N#Cc1cc(Cl)cc(Oc2cc(OCc3nc4cccc(Cl)c4s3)ccc2Cl)c1
IC50 [1]: 5.15 nM | IC95 [2]: 1250 nM | IC95 [3]: 156 nM | IC50 [7]: 3.06 nM | IC50 [4]: 5.98 nM

CS(=O)(=O)c1ccc(NC(=O)COc2ccc(Cl)c(Oc3cc(Cl)cc(C#N)c3)c2)c(Cl)c1
IC50 [1]: 0.91 nM | IC95 [2]: 78 nM | IC95 [3]: 31 nM | IC50 [7]: 0.99 nM | IC50 [4]: 1.33 nM

Cc1cc(C)c(-n2nnnc2SCC(=O)Nc2ccc(S(N)(=O)=O)cc2Cl)c(C)c1
IC50 [1]: 34.5 nM | IC95 [2]: 62 nM | IC95 [3]: 16 nM | IC50 [7]: 4.05 nM | IC50 [4]: 10.4 nM
